Results taken from ChEMBL document CHEMBL2413016, “Synthesis and in vivo evaluation of [(18)F]2-(4-(4-(2-(2-fluoroethoxy)phenyl)piperazin-1-yl)butyl)-4-methyl-1,2,4-triazine-3,5(2H,4H)-dione ([(18)F]FECUMI-101) as an imaging probe for 5-HT1A receptor agonist in nonhuman primates” (Bioorg Med Chem, 2013).
pEC50, pKi: −log10 of the molar value.

How the values were obtained:
[1] = molecular target: Histamine H1 receptor (Homo sapiens, UniProt P35367); test: Binding affinity to histamine H1 receptor (unknown origin)
[2] = molecular target: 5-hydroxytryptamine receptor 5A (Homo sapiens, UniProt P47898); test: Binding affinity to 5HT5A receptor (unknown origin)
5-hydroxytryptamine receptor 5A, sequence (P47898 whole entry): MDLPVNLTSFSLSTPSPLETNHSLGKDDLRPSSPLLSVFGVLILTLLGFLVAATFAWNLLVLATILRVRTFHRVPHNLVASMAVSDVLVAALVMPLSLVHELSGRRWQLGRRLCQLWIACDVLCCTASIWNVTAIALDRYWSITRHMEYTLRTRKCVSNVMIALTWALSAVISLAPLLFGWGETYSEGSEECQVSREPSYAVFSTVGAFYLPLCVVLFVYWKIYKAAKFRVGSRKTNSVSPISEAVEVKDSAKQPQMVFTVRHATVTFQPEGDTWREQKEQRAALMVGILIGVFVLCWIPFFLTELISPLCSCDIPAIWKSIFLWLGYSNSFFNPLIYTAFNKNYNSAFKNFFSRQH

[3] = molecular target: D(4) dopamine receptor (Homo sapiens, UniProt P21917); test: Binding affinity to dopamine 4 receptor (unknown origin)
D(4) dopamine receptor, sequence (P21917 whole entry): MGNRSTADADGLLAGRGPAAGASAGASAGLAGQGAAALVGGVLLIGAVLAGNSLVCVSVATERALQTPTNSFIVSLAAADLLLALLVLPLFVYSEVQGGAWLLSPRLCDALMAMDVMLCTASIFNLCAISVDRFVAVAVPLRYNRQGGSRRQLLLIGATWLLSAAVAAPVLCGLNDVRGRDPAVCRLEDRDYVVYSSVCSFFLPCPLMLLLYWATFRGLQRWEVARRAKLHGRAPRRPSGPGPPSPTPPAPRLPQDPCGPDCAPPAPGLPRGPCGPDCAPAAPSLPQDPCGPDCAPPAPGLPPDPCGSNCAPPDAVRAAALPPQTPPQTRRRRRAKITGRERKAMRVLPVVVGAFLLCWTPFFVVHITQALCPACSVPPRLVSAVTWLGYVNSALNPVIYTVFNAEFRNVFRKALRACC

[4] = molecular target: Alpha-1A adrenergic receptor (Homo sapiens, UniProt P35348); test: Binding affinity to adrenergic alpha1A receptor (unknown origin)
[5] = molecular target: D(3) dopamine receptor (Homo sapiens, UniProt P35462); test: Binding affinity to dopamine 3 receptor (unknown origin)
D(3) dopamine receptor, sequence (P35462 whole entry): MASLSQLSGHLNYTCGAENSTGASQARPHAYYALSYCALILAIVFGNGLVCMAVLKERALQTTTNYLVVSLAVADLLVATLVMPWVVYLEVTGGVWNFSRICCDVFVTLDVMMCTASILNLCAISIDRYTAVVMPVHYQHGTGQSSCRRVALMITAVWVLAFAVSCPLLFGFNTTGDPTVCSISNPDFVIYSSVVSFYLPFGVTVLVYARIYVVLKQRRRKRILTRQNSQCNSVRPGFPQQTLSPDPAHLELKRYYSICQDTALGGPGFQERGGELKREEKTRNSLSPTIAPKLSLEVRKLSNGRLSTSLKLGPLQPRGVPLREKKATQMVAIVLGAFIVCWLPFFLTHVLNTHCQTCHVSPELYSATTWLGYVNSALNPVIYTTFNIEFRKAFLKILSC

[6] = Binding affinity to benzodiazepine receptor in rat brain; type: tissue-based
[7] = molecular target: 5-hydroxytryptamine receptor 2A (Homo sapiens, UniProt P28223); test: Binding affinity to 5HT2A receptor (unknown origin)
5-hydroxytryptamine receptor 2A, sequence (P28223 whole entry): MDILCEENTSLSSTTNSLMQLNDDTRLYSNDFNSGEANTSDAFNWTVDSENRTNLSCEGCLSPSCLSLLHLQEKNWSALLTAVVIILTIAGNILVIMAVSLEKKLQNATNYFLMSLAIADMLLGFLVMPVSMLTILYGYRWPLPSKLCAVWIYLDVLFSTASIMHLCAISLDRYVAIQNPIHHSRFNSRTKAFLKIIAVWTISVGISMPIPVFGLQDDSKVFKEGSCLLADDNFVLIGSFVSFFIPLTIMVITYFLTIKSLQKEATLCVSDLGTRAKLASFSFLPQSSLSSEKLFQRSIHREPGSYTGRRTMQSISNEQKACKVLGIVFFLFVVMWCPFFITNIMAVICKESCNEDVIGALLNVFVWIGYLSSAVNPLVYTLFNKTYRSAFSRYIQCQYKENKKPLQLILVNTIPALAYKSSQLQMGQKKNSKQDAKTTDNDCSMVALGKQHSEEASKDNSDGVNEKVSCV

[8] = molecular target: 5-hydroxytryptamine receptor 2B (Homo sapiens, UniProt P41595); test: Binding affinity to 5HT2B receptor (unknown origin)
5-hydroxytryptamine receptor 2B, sequence (P41595 whole entry): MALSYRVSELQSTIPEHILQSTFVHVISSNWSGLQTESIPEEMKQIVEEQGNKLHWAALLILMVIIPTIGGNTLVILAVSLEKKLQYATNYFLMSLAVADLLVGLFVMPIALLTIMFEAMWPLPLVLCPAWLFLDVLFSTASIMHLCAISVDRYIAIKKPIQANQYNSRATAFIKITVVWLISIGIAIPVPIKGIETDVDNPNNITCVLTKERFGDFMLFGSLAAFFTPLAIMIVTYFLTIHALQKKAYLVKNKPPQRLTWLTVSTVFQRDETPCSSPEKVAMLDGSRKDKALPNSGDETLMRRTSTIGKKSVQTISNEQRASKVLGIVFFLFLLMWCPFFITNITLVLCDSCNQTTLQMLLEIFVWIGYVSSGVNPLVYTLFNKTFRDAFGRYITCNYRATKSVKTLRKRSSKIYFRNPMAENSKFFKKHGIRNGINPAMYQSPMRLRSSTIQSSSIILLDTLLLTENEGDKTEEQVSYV

[9] = molecular target: Alpha-2A adrenergic receptor (Homo sapiens, UniProt P08913); test: Binding affinity to adrenergic alpha2A receptor (unknown origin)
Alpha-2A adrenergic receptor, sequence (P08913 whole entry): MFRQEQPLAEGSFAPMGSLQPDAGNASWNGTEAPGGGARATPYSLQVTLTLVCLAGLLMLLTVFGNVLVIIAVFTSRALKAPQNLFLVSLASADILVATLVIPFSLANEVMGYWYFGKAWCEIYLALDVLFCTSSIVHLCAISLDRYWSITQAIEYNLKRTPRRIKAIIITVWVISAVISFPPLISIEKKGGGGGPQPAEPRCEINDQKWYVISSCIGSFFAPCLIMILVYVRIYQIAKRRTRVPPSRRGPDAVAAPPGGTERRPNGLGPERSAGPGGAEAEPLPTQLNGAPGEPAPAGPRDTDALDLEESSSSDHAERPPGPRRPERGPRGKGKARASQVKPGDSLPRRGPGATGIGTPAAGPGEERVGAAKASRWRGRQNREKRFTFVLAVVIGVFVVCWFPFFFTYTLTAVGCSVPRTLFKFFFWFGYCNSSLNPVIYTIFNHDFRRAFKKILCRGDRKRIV

[10] = Binding affinity to sigma 2 receptor (unknown origin); parameters: species or system Homo sapiens
[11] = molecular target: T1, 5-hydroxytryptamine receptor 1A (Homo sapiens, UniProt P08908); test: Binding affinity to 5HT1A receptor (unknown origin)
T1 sequence (P08908 whole entry): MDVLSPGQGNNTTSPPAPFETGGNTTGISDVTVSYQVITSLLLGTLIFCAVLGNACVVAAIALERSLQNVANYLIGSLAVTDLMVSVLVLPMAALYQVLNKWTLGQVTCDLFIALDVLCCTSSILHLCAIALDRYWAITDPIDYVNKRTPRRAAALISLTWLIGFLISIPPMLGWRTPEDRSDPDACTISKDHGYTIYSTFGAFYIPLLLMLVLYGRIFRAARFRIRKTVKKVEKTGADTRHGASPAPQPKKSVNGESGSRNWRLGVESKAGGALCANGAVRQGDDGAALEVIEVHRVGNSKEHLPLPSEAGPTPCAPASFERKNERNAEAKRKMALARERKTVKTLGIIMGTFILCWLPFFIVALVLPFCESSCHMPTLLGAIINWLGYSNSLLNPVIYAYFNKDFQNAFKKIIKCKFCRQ

[12] = molecular target: 5-hydroxytryptamine receptor 1B (Homo sapiens, UniProt P28222); test: Binding affinity to 5HT1B receptor (unknown origin)
5-hydroxytryptamine receptor 1B, sequence (P28222 whole entry): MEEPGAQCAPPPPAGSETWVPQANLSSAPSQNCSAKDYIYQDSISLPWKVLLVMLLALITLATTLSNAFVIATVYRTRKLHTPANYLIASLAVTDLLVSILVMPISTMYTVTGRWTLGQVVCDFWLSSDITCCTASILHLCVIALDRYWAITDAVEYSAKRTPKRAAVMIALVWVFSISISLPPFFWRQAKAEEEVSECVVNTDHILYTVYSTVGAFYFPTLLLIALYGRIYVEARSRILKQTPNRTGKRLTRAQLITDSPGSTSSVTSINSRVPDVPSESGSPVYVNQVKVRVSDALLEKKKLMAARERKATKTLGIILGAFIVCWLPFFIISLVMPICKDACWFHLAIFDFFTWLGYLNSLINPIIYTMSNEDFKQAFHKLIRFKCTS

[13] = molecular target: 5-hydroxytryptamine receptor 1A (Homo sapiens) (UniProt P08908); test: Partial agonist activity at human 5HT1A receptor expressed in CHO cells assessed as increase in [35S]GTPgammaS binding relative to serotonin; type: functional, cell-based
[14] = molecular target: D(2) dopamine receptor (Homo sapiens, UniProt P14416); test: Binding affinity to dopamine 2 receptor (unknown origin)
[15] = molecular target: T1, 5-hydroxytryptamine receptor 1A; test: Partial agonist activity at human 5HT1A receptor expressed in CHO cells assessed as increase in [35S]GTPgammaS binding; type: functional, cell-based
[16] = molecular target: Alpha-1B adrenergic receptor (Homo sapiens, UniProt P35368); test: Binding affinity to adrenergic alpha1B receptor (unknown origin)
[17] = molecular target: Alpha-2B adrenergic receptor (Homo sapiens, UniProt P18089); test: Binding affinity to adrenergic alpha2B receptor (unknown origin)
Alpha-2B adrenergic receptor, sequence (P18089 whole entry): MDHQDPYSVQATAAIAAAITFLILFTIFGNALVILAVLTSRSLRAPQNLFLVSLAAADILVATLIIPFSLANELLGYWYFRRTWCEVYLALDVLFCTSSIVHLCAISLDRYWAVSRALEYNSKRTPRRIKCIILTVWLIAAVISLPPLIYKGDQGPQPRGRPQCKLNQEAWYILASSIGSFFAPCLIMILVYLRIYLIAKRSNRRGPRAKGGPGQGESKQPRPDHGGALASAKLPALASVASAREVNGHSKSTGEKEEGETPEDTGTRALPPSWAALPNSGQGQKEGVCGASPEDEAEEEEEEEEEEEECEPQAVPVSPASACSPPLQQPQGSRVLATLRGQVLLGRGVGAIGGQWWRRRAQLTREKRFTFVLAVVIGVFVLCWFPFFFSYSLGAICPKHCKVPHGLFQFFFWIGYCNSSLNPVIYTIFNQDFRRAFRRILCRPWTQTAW

[18] = molecular target: Alpha-1D adrenergic receptor (Homo sapiens, UniProt P25100); test: Binding affinity to adrenergic alpha1D receptor (unknown origin)
Alpha-1D adrenergic receptor, sequence (P25100 whole entry): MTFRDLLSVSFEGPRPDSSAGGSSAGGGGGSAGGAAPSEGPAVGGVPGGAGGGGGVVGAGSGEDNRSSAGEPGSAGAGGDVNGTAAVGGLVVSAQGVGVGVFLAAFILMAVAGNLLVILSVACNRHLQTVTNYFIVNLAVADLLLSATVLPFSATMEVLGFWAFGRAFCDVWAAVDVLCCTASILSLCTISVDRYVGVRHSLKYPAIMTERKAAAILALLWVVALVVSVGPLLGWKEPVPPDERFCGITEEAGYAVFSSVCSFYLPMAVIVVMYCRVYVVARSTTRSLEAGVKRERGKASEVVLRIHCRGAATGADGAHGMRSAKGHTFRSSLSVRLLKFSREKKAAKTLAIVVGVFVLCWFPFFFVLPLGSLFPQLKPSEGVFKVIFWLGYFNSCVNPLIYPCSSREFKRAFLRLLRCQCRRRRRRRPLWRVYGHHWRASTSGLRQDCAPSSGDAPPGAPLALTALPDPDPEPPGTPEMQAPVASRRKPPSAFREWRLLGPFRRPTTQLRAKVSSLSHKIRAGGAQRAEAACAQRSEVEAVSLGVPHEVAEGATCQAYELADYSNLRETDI

[19] = molecular target: Sigma non-opioid intracellular receptor 1 (Homo sapiens, UniProt Q99720); test: Binding affinity to sigma 1 receptor (unknown origin)
Sigma non-opioid intracellular receptor 1, sequence (Q99720 whole entry): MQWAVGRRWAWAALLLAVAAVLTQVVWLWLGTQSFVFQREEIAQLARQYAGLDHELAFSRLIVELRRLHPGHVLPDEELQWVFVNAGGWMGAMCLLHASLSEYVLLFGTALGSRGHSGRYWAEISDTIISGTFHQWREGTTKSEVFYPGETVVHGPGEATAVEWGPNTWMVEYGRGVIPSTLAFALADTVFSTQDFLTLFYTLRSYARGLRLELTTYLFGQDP

[20] = molecular target: Histamine H2 receptor (Homo sapiens, UniProt P25021); test: Binding affinity to histamine H2 receptor (unknown origin)
[21] = molecular target: Alpha-2C adrenergic receptor (Homo sapiens, UniProt P18825); test: Binding affinity to adrenergic alpha2C receptor (unknown origin)
[22] = molecular target: 5-hydroxytryptamine receptor 7 (Homo sapiens, UniProt P34969); test: Binding affinity to 5HT7 receptor (unknown origin)
5-hydroxytryptamine receptor 7, sequence (P34969 whole entry): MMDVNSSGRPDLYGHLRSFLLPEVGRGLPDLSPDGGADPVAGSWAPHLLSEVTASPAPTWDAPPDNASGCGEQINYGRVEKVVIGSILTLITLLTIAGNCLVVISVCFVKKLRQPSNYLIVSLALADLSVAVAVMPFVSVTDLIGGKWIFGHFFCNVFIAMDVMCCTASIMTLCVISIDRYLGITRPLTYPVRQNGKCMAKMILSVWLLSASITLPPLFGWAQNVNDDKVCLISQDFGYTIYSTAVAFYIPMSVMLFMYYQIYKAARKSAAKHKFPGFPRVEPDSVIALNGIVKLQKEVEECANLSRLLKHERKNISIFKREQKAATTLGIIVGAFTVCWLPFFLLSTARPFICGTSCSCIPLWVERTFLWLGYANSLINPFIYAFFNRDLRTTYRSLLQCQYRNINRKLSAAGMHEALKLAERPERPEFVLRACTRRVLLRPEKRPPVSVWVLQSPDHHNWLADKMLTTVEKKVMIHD

[23] = molecular target: D(1A) dopamine receptor (Homo sapiens, UniProt P21728); test: Binding affinity to dopamine 1 receptor (unknown origin)
[24] = molecular target: 5-hydroxytryptamine receptor 1D (Homo sapiens, UniProt P28221); test: Binding affinity to 5HT1D receptor (unknown origin)

Cn1c(=O)cnn(CCCCN2CCN(c3ccccc3OCCF)CC2)c1=O
pKi [1]: 6.29
pKi [2]: 5.67
pKi [3]: 7.15
pKi [4]: 7.67
pKi [5]: 7.66
pKi [6]: 5.20
pKi [7]: < 5.00
pKi [8]: 6.52
pKi [9]: 5.56
pKi [10]: 5.76
pKi [11]: 10.00
pKi [12]: 6.39
Emax [13]: 77%
pKi [14]: 7.43
pEC50 [15]: 9.19
pKi [16]: 7.57
pKi [17]: 7.25
pKi [18]: 7.20
pKi [19]: < 5.00
pKi [20]: 5.75
pKi [21]: 6.76
pKi [22]: 7.76
pKi [23]: < 5.00
pKi [24]: 6.63
